Test results as given in paper PMC10590756, “Glutarate regulates T cell metabolism and anti-tumour immunity” (Nature Metabolism, 2023).

How the values were obtained:
human CD8^+ T cells = assay: Isotope tracing of ^13C5-labelled DEG and intracellular glutarate by LC-tandem MS; type: in vitro ADME
Method: To affirm that exogenous administration of DEG leads to increased intracellular glutarate levels, we performed isotope tracing of human CD8^+ T cells treated with ^13C5-labelled DEG.
Cells were counted to determine viable cell numbers (Fig. 1f,h,i and Extended Data Fig. g,h,k). A total of 0.5–2 × 10^6 viable cells were collected, washed with cold PBS and metabolic activity was quenched by freezing samples in dry ice and ethanol, and stored at −80 °C. Metabolites were extracted by adding 150 μl ice-cold 1:1 (vol/vol) methanol/water (containing 1 mM N-cyclohexyl-2-aminoethanesulfonic acid (CHES) as an internal standard) to the cell pellets; samples were transferred to a chilled microcentrifuge tube containing 150 μl chloroform and […] (750 μl total in 3:1:1 vol/vol methanol/water/chloroform). Samples were sonicated in a water bath for 8 min at 4 °C, and centrifuged (13,000g) for 10 min at 4 °C. The supernatant containing the extract was transferred to a new tube for evaporation using TurboVap LV (Biotage), resuspended in 3:3:1 (vol/vol/vol) methanol/water/chloroform (350 μl total) to phase-separate polar metabolites from apolar metabolites and centrifuged. The aqueous phase was transferred to a new tube for evaporation using TurboVap LV, washed with 60 μl methanol and dried again. Evaporated extracts were dissolved in 100 µl MeOH–50% water, before injection on the machine. Isotopically labelled glutarates were determined by liquid chromatography (LC)–tandem mass spectrometry (tandem MS) on a Waters ACQUITY UPLC system coupled to a Xevo-TQ-XS mass spectrometer. […] The column was subsequently washed in 75% A for 2.5 min and re-equilibrated at initial conditions for 3 min. MS analyses were performed in multiple reaction monitoring (MRM) mode, with positive electrospray ionization (ESI) from minute 0 – 1.4 and negative electrospray ionization (ESI) from minute 1.4 to minute 4.7. Positive ESI was conducted according to the following parameters: capillary potential 3 kV, source offset 30 V, cone voltage 15 V, source temperature 150 °C, desolvation temperature 600 °C, cone gas flow 150 l h^−1, desolvation gas flow, 1,000 l h^−1, nebulizer 7 bar and collision gas flow 0.17 ml min^−1. Negative ESI was operated under the same conditions but with a capillary potential set to 2 kV and a cone voltage set to 20 V. Acquisition was performed using MRM with the mass transitions and parameters illustrated in Supplementary Table 4. […]
Cells were counted to determine the viable cell numbers (Extended Data Fig. 1i,n). […]
Glutarate was determined by LC–tandem MS on a Waters ACQUITY UPLC system coupled to a Xevo-TQ-S mass spectrometer (Waters). […]

human full-length KDM6A = molecular target: T1, human full-length KDM6A (Homo sapiens, UniProt O15550); assay: Cell-free KDM6A activity assay (^14CO2 release); type: biochemical
T1 construct: The human full-length HIF-P4H-1 and KDM6A enzymes were recombinantly produced using Sf21 insect cells; made in house; host or cells: Sf21 insect cells (baculovirus, pVL1393)
T1 sequence (O15550 whole entry): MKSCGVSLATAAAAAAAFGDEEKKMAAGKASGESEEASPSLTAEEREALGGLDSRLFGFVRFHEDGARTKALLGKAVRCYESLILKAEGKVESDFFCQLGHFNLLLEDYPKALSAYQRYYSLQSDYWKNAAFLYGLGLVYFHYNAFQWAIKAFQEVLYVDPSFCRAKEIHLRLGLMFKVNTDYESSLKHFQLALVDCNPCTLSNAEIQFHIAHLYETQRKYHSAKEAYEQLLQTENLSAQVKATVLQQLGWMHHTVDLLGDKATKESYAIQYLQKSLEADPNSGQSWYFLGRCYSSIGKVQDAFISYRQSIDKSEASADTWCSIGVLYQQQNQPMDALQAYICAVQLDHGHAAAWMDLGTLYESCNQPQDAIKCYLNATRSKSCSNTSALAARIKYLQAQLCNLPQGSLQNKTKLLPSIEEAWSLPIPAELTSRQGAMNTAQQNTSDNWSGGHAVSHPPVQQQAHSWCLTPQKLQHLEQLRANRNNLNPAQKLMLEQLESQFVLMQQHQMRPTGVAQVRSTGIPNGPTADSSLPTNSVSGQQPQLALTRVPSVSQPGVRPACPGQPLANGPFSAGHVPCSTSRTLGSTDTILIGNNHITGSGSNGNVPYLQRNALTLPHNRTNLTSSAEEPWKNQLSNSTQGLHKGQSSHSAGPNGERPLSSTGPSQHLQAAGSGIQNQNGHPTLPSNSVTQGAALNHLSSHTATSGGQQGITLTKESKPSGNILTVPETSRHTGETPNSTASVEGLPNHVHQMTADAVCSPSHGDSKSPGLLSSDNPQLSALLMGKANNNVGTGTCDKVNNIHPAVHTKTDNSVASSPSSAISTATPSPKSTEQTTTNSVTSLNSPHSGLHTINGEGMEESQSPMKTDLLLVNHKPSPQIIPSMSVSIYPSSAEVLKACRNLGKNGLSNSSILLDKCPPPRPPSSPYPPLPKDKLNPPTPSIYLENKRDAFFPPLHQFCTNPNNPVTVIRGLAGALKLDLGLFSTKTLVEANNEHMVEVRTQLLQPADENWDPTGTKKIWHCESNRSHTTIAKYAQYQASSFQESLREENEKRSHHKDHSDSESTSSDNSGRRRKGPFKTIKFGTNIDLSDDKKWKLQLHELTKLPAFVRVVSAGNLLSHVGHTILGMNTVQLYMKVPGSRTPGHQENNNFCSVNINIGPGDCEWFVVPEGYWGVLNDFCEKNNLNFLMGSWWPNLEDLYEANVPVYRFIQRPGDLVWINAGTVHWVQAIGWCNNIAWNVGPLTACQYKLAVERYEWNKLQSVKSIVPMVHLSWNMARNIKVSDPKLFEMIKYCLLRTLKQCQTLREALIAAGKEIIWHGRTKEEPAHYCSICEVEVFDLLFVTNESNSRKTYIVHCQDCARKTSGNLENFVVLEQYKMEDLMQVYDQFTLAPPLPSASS
Text: The human full-length HIF-P4H-1 and KDM6A enzymes were recombinantly produced using Sf21 insect cells and the enzymes were purified with anti-FLAG M2 affinity gel as described previously[68],[69]. Briefly, the C terminus FLAG-tagged human HIF-P4H1-2 and KDM6A were generated using PCR and subcloned into pAcG3X and pVL1393 baculovirus expression vectors, respectively. The recombinant baculoviruses were generated by transducing the bacmid DNA into Spodoptera frugiperda Sf9 cells using BaculoGold DNA (HIF-P4H1-2, BD Biosciences) and BacMagic-3 DNA kit (for KDM6A, Novagen). Recombinant proteins were produced by infecting Sf21 insect cells with the corresponding amplified baculoviruses for 72 h at 27 °C. Cells were homogenized in a buffer containing 10 mM Tris, 150 mM NaCl, 100 mM glycine, 0.1% (v/v) Triton X-100, pH 7.8, and a protease inhibitor cocktail tablet without EDTA. The cell lysates were centrifuged at 21,000g for 30 min; the soluble fractions containing the FLAG-tagged proteins were affinity-purified using the anti-FLAG M2 affinity gel (Sigma-Aldrich). […] Protein concentration was measured with NanoDrop and proteins were analysed by SDS–PAGE followed by Coomassie brilliant blue staining. […] The IC50 value of the glutarate analogue was calculated from the inhibition saturation curves.

CCOC(=O)CCCC(=O)OCC [DEG, Diethyl glutarate]
time of conversion of DEG to glutarate intracellularly (human CD8^+ T cells): ≤ 15 min | increase of measured intracellular glutarate concentrations (human CD8^+ T cells; 500 µM DEG, 7 days): approximately twofold | intracellular DEG (human CD8^+ T cells; 15 min after administration of the labelled compound): could not be detected | conversion of DEG into intracellular glutarate after uptake (human CD8^+ T cells; ^13C5-labelled DEG): very rapidly converted into intracellular glutarate

O=C(O)CCCC(=O)O [glutarate, glutaric acid]
IC50 (human full-length KDM6A): 600 µM
